Experiments:
Test in all cases: KINOMEscan competitive binding, whole panel
[1] = target: T1, panel of 203 kinases (Homo sapiens, UniProt Q9UIK4); conditions: 10 µM, n=1; kinase DAPK2; read-out: Percent inhibition DAPK2
T1 construct: purchased DiscoverX (KINOMEscan)
Outline: (§1)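 First, kinases were produced as T7 bacteriophage fusion proteins. Then compounds were added to compete them off probe ligands immobilized on a solid support at the ATP site. Finally, bound kinase was measured and converted to percentage inhibition.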

[2] = target: T2, panel of 203 kinases (Homo sapiens, UniProt P42684); conditions: 10 µM, n=1; kinase ABL2; read-out: Percent inhibition ABL2
T2 construct: purchased DiscoverX (KINOMEscan)
Outline: as §1

[3] = target: T3, panel of 203 kinases (Homo sapiens, UniProt P37023); conditions: 10 µM, n=1; kinase ACVRL1; read-out: Percent inhibition ACVRL1
T3 construct: purchased DiscoverX (KINOMEscan)
Outline: as §1

[4] = target: T4, panel of 203 kinases (Homo sapiens, UniProt Q16539); conditions: 10 µM, n=1; kinase p38-alpha; read-out: Percent inhibition p38-alpha
T4 construct: purchased DiscoverX (KINOMEscan)
Outline: as §1

[5] = target: T5, panel of 203 kinases (Homo sapiens, UniProt P53778); conditions: 10 µM, n=1; kinase p38-gamma; read-out: Percent inhibition p38-gamma
T5 construct: purchased DiscoverX (KINOMEscan)
T5 sequence (P53778 1-367): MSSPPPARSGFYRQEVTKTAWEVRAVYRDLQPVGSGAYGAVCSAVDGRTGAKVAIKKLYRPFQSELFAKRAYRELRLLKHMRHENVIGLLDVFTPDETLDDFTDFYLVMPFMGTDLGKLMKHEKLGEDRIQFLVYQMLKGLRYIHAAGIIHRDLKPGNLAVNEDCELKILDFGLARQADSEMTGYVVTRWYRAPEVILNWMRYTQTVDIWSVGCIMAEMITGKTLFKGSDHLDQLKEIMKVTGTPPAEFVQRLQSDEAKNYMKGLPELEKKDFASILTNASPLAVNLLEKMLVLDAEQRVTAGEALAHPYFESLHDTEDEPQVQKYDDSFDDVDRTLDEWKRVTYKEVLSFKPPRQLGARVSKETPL
Outline: as §1

[6] = target: T6, panel of 203 kinases (Homo sapiens, UniProt Q13188); conditions: 10 µM, n=1; kinase MST2; read-out: Percent inhibition MST2
T6 construct: purchased DiscoverX (KINOMEscan)
T6 sequence (Q13188 1-491): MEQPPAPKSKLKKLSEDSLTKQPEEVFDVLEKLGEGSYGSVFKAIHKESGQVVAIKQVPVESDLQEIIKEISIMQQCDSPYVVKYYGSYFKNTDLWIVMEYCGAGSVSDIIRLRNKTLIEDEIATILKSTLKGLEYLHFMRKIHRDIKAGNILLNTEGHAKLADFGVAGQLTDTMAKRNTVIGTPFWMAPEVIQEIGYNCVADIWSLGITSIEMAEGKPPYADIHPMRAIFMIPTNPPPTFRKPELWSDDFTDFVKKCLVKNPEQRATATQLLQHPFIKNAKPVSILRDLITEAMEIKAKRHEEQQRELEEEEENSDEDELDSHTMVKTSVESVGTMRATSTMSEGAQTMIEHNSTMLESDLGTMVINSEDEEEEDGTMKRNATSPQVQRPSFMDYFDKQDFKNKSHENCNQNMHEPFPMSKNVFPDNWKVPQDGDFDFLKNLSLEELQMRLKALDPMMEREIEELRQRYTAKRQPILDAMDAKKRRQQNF
Outline: as §1

[7] = target: T7, panel of 203 kinases (Homo sapiens, UniProt Q9HAZ1); conditions: 10 µM, n=1; kinase CLK4; read-out: Percent inhibition CLK4
T7 construct: purchased DiscoverX (KINOMEscan)
Outline: as §1

[8] = target: T8, panel of 203 kinases (Homo sapiens, UniProt P35916); conditions: 10 µM, n=1; kinase FLT4; read-out: Percent inhibition FLT4
T8 construct: purchased DiscoverX (KINOMEscan)
Outline: as §1

[9] = target: T9, panel of 203 kinases (Homo sapiens, UniProt O94768); conditions: 10 µM, n=1; kinase DRAK2; read-out: Percent inhibition DRAK2
T9 construct: purchased DiscoverX (KINOMEscan)
T9 sequence (O94768 1-372): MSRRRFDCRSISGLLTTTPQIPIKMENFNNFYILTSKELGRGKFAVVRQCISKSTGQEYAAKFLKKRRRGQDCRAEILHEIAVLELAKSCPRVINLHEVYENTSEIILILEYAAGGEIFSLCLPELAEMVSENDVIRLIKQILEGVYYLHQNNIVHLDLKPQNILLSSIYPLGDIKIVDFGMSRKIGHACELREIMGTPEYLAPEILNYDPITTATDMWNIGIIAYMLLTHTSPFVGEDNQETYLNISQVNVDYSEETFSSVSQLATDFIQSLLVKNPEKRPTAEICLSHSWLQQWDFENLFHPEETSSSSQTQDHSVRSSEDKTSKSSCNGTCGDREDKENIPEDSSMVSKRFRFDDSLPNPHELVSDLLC
Outline: as §1

[10] = target: T10, panel of 203 kinases (Homo sapiens, UniProt P53667); conditions: 10 µM, n=1; kinase LIMK1; read-out: Percent inhibition LIMK1
T10 construct: purchased DiscoverX (KINOMEscan)
Outline: as §1

[11] = target: T11, panel of 203 kinases (Homo sapiens, UniProt P31751); conditions: 10 µM, n=1; kinase AKT2; read-out: Percent inhibition AKT2
T11 construct: purchased DiscoverX (KINOMEscan)
Outline: as §1

[12] = target: T12, panel of 203 kinases (Homo sapiens, UniProt P04626); conditions: 10 µM, n=1; kinase ERBB2; read-out: Percent inhibition ERBB2
T12 construct: purchased DiscoverX (KINOMEscan)
Outline: as §1

[13] = target: T13, panel of 203 kinases (Homo sapiens, UniProt P08069); conditions: 10 µM, n=1; kinase IGF1R; read-out: Percent inhibition IGF1R
T13 construct: purchased DiscoverX (KINOMEscan)
Outline: as §1

[14] = target: T14, panel of 203 kinases (Homo sapiens, UniProt P49840); conditions: 10 µM, n=1; kinase GSK3A; read-out: Percent inhibition GSK3A
T14 construct: purchased DiscoverX (KINOMEscan)
Outline: as §1

[15] = target: T15, panel of 203 kinases (Homo sapiens, UniProt Q15759); conditions: 10 µM, n=1; kinase p38-beta; read-out: Percent inhibition p38-beta
T15 construct: purchased DiscoverX (KINOMEscan)
Outline: as §1

[16] = target: T16, panel of 203 kinases (Homo sapiens, UniProt Q13705); conditions: 10 µM, n=1; kinase ACVR2B; read-out: Percent inhibition ACVR2B
T16 construct: purchased DiscoverX (KINOMEscan)
Outline: as §1

T14 sequence (P49840 whole entry): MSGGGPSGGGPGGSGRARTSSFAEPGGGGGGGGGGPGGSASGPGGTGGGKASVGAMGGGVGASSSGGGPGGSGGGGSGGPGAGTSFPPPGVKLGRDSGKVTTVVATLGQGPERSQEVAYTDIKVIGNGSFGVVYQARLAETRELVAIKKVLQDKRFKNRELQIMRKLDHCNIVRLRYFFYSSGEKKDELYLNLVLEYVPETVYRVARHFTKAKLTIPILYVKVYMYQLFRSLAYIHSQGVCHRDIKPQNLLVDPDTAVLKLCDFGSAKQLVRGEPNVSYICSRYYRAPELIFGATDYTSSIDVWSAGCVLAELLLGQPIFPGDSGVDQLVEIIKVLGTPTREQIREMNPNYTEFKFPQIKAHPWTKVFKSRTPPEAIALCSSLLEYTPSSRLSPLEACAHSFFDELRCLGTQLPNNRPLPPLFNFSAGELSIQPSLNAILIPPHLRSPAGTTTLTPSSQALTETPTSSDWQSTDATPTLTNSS
T7 sequence (Q9HAZ1 whole entry): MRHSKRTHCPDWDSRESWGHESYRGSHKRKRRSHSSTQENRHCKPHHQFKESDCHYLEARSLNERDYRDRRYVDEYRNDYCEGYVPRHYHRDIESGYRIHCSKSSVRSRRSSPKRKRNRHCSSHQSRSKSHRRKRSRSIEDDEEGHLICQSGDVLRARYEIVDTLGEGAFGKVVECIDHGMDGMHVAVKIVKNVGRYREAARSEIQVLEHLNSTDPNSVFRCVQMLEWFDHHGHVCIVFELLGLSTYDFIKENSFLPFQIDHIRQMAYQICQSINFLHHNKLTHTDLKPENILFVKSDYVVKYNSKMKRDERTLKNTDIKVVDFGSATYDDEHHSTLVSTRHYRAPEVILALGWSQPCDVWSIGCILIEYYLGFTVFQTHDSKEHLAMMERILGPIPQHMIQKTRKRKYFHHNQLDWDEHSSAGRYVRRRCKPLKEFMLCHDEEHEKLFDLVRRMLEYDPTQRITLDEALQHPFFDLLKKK
T1 sequence (Q9UIK4 whole entry): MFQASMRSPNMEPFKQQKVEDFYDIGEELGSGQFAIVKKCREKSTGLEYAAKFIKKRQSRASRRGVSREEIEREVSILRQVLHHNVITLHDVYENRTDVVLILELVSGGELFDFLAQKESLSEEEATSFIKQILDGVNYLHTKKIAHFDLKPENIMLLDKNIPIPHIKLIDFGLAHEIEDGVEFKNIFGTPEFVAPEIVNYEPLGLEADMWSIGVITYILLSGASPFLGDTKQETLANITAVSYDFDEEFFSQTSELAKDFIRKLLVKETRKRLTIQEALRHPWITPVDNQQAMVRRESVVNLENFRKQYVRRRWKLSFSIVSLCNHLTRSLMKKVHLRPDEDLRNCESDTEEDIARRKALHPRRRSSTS
T15 sequence (Q15759 whole entry): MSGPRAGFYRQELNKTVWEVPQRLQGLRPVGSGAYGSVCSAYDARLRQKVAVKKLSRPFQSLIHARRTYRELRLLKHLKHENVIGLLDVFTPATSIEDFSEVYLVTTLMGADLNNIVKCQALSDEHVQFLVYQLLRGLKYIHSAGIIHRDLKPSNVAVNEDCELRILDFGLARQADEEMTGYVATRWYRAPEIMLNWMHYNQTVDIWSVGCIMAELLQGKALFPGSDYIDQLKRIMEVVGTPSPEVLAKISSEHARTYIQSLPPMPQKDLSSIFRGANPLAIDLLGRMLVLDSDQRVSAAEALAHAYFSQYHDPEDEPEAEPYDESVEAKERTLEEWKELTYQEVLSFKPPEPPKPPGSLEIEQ
T16 sequence (Q13705 19-512): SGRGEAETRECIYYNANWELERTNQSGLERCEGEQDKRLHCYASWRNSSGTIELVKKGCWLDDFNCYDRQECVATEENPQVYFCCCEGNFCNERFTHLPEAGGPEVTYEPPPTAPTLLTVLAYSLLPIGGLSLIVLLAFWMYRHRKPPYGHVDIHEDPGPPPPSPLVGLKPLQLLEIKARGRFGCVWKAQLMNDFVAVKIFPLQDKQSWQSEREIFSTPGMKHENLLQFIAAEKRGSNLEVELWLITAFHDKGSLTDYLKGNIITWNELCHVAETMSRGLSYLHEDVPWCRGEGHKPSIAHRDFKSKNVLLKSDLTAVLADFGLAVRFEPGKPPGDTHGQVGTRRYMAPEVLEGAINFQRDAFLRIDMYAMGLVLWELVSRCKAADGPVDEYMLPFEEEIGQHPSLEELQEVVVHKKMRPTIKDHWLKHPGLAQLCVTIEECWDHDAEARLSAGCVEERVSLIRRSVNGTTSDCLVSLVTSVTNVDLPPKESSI
T2 sequence (P42684 whole entry): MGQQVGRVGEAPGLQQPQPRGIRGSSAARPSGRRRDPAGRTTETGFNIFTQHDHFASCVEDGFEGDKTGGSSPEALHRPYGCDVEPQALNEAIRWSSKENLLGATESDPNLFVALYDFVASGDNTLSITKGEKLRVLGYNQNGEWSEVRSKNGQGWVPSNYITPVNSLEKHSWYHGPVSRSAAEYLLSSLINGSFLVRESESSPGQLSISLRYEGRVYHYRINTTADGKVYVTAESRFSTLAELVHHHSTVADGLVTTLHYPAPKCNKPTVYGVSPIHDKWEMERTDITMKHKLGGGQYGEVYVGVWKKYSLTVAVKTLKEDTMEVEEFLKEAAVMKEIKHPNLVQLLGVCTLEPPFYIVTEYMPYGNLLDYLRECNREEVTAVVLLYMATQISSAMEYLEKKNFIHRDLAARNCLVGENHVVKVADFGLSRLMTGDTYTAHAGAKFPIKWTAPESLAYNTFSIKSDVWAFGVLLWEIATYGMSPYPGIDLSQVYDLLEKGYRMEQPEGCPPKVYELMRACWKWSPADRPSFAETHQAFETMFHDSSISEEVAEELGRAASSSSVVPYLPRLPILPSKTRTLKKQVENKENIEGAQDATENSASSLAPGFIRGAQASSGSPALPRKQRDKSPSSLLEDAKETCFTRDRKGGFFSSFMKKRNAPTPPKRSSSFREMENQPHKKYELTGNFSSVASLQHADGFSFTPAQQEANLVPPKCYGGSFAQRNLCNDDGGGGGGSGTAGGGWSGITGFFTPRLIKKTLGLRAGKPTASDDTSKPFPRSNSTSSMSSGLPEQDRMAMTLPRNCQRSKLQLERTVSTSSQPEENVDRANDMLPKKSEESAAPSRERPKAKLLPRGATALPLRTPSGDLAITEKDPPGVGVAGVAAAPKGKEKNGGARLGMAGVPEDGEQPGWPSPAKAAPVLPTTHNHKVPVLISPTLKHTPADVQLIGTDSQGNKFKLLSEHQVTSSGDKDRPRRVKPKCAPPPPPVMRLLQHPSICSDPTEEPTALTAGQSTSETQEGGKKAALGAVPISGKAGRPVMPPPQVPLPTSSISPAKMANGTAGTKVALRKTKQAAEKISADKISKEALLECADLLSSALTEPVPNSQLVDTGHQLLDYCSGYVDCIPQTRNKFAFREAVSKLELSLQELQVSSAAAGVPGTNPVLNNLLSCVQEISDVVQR
T10 sequence (P53667 whole entry): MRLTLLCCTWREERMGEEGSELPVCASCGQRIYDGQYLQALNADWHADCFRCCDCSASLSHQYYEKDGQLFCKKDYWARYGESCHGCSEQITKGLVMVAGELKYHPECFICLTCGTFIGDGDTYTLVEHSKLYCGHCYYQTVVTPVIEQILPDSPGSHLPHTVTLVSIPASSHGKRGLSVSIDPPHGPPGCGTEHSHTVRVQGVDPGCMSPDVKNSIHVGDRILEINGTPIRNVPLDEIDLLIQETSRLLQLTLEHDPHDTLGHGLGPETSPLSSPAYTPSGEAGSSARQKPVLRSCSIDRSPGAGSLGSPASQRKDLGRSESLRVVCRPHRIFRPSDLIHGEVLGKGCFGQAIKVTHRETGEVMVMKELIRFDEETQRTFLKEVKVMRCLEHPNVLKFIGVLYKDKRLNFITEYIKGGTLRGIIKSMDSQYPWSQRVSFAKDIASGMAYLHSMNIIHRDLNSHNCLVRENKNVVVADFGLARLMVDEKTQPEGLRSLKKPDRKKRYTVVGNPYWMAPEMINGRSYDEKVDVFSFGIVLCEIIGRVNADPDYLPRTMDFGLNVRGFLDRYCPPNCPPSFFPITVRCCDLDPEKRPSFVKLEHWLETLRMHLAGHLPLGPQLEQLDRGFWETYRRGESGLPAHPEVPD
T4 sequence (Q16539 whole entry): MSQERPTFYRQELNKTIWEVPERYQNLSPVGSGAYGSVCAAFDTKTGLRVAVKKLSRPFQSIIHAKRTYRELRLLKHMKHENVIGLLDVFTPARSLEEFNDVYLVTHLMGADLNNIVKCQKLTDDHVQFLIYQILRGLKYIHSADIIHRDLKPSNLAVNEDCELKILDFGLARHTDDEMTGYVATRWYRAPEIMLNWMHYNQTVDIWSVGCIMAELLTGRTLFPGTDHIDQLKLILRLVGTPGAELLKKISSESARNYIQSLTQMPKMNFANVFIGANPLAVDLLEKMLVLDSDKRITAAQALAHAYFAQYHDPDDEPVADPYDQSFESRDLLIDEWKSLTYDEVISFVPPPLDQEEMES
T11 sequence (P31751 whole entry): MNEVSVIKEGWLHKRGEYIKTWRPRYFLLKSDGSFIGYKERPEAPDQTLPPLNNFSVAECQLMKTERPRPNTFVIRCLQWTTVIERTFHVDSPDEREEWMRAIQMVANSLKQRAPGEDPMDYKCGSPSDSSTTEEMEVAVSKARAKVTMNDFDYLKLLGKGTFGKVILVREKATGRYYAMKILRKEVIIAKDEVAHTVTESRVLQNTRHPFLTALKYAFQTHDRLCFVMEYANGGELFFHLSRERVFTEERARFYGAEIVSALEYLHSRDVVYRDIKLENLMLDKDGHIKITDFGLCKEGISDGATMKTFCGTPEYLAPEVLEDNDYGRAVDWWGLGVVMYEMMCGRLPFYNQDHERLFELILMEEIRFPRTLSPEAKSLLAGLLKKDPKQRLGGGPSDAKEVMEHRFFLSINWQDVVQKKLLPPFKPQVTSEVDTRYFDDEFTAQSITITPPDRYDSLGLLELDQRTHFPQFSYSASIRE

| SMILES | inhibition at 10 µM [1] [%] | inhibition at 10 µM [2] [%] | inhibition at 10 µM [3] [%] | inhibition at 10 µM [4] [%] | inhibition at 10 µM [5] [%] | inhibition at 10 µM [6] [%] | inhibition at 10 µM [7] [%] | inhibition at 10 µM [8] [%] | inhibition at 10 µM [9] [%] | inhibition at 10 µM [10] [%] | inhibition at 10 µM [11] [%] | inhibition at 10 µM [12] [%] | inhibition at 10 µM [13] [%] | inhibition at 10 µM [14] [%] | inhibition at 10 µM [15] [%] | inhibition at 10 µM [16] [%] |
| --- | --- | --- | --- | --- | --- | --- | --- | --- | --- | --- | --- | --- | --- | --- | --- | --- |
| CN1CCN(c2ccc(Nc3nccc(-c4cnn5ncccc45)n3)cc2C#N)CC1 [Compound 1] | 92.2 | 95 | 85 | 0 | 0 | 100 | 99.5 | 71.9 | 82.4 | 85.9 | 0 | 0 | 99.4 | 100 | 0 | 0 |
| COc1ccc(Nc2nccc(-c3cnn4ncccc34)n2)cc1 [Compound 2] | 0 | 92.5 | 0 | 0 | 88.4 | 89.9 | 98.7 | 70.1 | 88.6 | 90.5 | 0 | 0 | 98.1 | 100 | 0 | 80.3 |
| Cc1ccc(O)cc1Nc1ccnc(Nc2cccc(C(N)=O)c2)n1 [Compound 3] | 0 | 100 | 99.7 | 77.8 | 0 | 94.4 | 0 | 99.2 | 0 | 86.4 | 0 | 0 | 0 | 69.7 | 94.8 | 100 |
| Cc1ccc(O)cc1N(C)c1ccnc(Nc2cccc(S(N)(=O)=O)c2)n1 [Compound 4] | 0 | 100 | 100 | 99.1 | 93 | 99.2 | 0 | 99.7 | 0 | 91.9 | 0 | 0 | 0 | 91.3 | 100 | 100 |
| Fc1cccc(COc2ccc(Nc3ncnc4c3CN(CCN3CCOCC3)CC4)cc2Cl)c1 [Compound 6] | 0 | 0 | 0 | 0 | 0 | 0 | 0 | 0 | 0 | 0 | 0 | 86.5 | 0 | 0 | 0 | 0 |
| COc1cc(Nc2nccc(-c3sc(N)nc3-c3cccc(NC(=O)c4c(F)cccc4F)c3)n2)cc(OC)c1OC [Compound 7] | 0 | 100 | 0 | 98.5 | 0 | 99.9 | 0 | 100 | 0 | 100 | 0 | 100 | 95.9 | 0 | 100 | 97.5 |
| C[C@@H](Oc1cc(-c2cnc3ccccn23)sc1C(N)=O)c1ccccc1Cl [Compound 8] | 88.3 | 0 | 0 | 0 | 0 | 81 | 81 | 84 | 0 | 0 | 0 | 0 | 0 | 0 | 0 | 0 |
| c1ccc(COc2cccc(-c3ccnc4[nH]ccc34)c2)cc1 [Compound 9] | 0 | 0 | 0 | 0 | 0 | 0 | 0 | 0 | 0 | 0 | 0 | 0 | 0 | 0 | 0 | 0 |
| Clc1ccc(Nc2ncc(-c3ccccc3)s2)cc1 [Compound 10] | 0 | 0 | 0 | 0 | 0 | 0 | 0 | 0 | 0 | 0 | 0 | 0 | 0 | 0 | 0 | 0 |
| Nc1ncc2c(-c3ccncc3)c[nH]c2n1 [Compound 11] | 0 | 0 | 0 | 0 | 0 | 86.8 | 93.4 | 0 | 89.7 | 0 | 0 | 0 | 0 | 0 | 0 | 65.7 |

Reference: PMC9927415, “Tyrosine Kinase Inhibitors Display Potent Activity against Cryptosporidium parvum” (Microbiology Spectrum, 2022)
